Data from publication PMC10732151, “1,4,7-Triazacyclononane-Based Chelators for the Complexation of [^186Re]Re- and [^99mTc]Tc-Tricarbonyl Cores” (Inorganic Chemistry, 2023).

Legend:
Solubility (qualitative) = type: physicochemical
[1] = Storage stability of chelators and nonradioactive Re complexes; type: physicochemical; conditions: for hydrolysis observed on storage: under dry conditions at RT for 3 months
[2] = Radiocomplex stability in rat serum; type: in vitro ADME; conditions: 37 °C
Description: The radiocomplex stability was also tested in rat serum. HPLC-purified radiocomplexes ([^99mTc]Tc, 50 μL, 7.4–11.1 MBq, 200–300 μCi; [^186Re]Re, 50 μL, 3.0–3.7 MBq, 80–100 μCi) were added to solutions of rat serum (400 μL, Innovative-grade U.S. Origin Sprague–Dawley Rat Serum, Innovative Research, Novi, MI) and ascorbic acid (50 μL, 1 mg/mL in PBS, pH 7). The rat serum mixtures were incubated at 37 °C. Aliquots (100–300 μL) were taken at 1, 4, and 24 h for all radiocomplexes and also at 48 h for the [^186Re]Re complexes. The rat serum aliquots were added to a 4 times volume of acetonitrile to precipitate the rat serum proteins. The solutions were vortexed for 1 min and centrifuged for 10 min. The supernatant was carefully removed, and the pellet was washed with another portion of acetonitrile (100–500 μL). The solution was again vortexed and centrifuged, and the supernatant was removed. The activities in the combined supernatants (containing radiocomplex not bound to proteins) and the pellet (containing radiocomplex bound to proteins) were measured to determine the percentage of nonspecific protein binding for each radiocomplex. Finally, the solvent was removed from the supernatant under a stream of nitrogen, and the stability of the radiocomplexes was determined by radio-HPLC (Methods 1 and 3) after reconstitution in PBS (1 mM, pH 7.4). The formation of colloidal [^99mTc]TcO2 or [^186Re]ReO2 was also monitored at each time point by radio-TLC (Developers 1 and 2).

[3] = In vitro radiocomplex stability in PBS buffer with no challenger, L-cysteine or L-histidine; type: physicochemical; conditions: 37 °C
Description: Radiocomplex stability testing was carried out in PBS buffer (350–400 μL) with either no challenger or L-cysteine (50 μL, 10 mM) or L-histidine (50 μL, 10 mM) as the challenger. All stability tests also contained ascorbic acid (50 μL, 1 mg/mL in PBS, pH 7) as a radioprotectant. HPLC-purified radiocomplexes ([^99mTc]Tc, 50 μL, 3.7–5.6 MBq, 100–150 μCi; [^186Re]Re, 50 μL, 1.9–3.7 MBq, 50–100 μCi) were added to the stability testing solutions and incubated at 37 °C. Aliquots of each solution were taken at 1, 4, and 24 h, and the stability of the complex was determined by radio-HPLC (Methods 1 and 3) or radio-TLC (Developer 1). An additional stability time point of 48 h was taken for the [^186Re]Re complexes. The formation of colloidal [^99mTc]TcO2 or [^186Re]ReO2 was monitored at each time point by radio-TLC (Developers 1 and 2).

Compound: CCOC(=O)CN1CCN(CC(=O)O)CCN(CC(=O)NCc2ccccc2)CC1 [Chelator 8, TACN-benzylamide Acid Ethyl Ester]
- solubility (solvents in which soluble) (Solubility (qualitative)): soluble in ethanol and acetonitrile

Compound: fac-[Re(CO)3(TACN-benzylamide)]^+ [Re-3]
- solubility (solvents in which soluble) (Solubility (qualitative)): soluble in water
- time stable on storage ([1]; stored under dry, dark conditions at RT): 1 month

Compound: O=C(CN1CCNCCNCC1)NCc1ccccc1 [Chelator 3, N-Benzyl-2-(1,4,7-triazonan-1-yl)acetamide]
- solubility (solvents in which soluble) (Solubility (qualitative)): soluble in water, methanol, and acetonitrile

Compound: COC(=O)CN1CCN(CC(=O)NCc2ccccc2)CCN(CC(=O)OC)CC1 [Chelator 5, TACN-benzylamide Methyl Ester]
- solubility (solvents in which soluble) (Solubility (qualitative)): soluble in methanol and acetonitrile
- time stable on storage ([1]; stored in a methanol solution, afterwards ester hydrolysis observed): up to 1 week

Compound: fac-[Re(CO)3(TACN-benzylamide methyl ester)]^+ [Re-5]
- hydrolysis observed on storage [1]: < 5%

Compound: COC(=O)CN1CCN(CC(=O)NCc2ccccc2)CCN(CC(=O)OC)CC1.O=[C]=[186Re+](=[C]=O)=[C]=O [[^186Re]Re-5]
- stability in rat serum ([2]; 48 h): 4 ± 1%
- stability in rat serum ([2]; at 1 h): 88 ± 1%
- stability in PBS, L-cysteine, and L-histidine ([3]; through 4 h): > 95%
- stability in PBS, L-cysteine, and L-histidine ([3]; through/after 48 h): > 76%

Compound: CCOC(=O)CN1CCN(CC(=O)NCc2ccccc2)CCN(CC(=O)OCC)CC1.O=[C]=[186Re+](=[C]=O)=[C]=O [[^186Re]Re-6]
- stability in rat serum ([2]; 48 h): ≤ 2%
- stability in PBS, L-cysteine, and L-histidine ([3]; through 4 h): > 95%
- stability in PBS, L-cysteine, and L-histidine ([3]; through/after 48 h): > 76%

Compound: CCOC(=O)CN1CCN(CC(=O)NCc2ccccc2)CCN(CC(=O)OCC)CC1.O=[C]=[99Tc+](=[C]=O)=[C]=O [[^99mTc]Tc-6]
- stability in rat serum ([2]; 24 h): ≤ 2%
- stability in PBS, L-cysteine, and L-histidine ([3]; through 4 h): > 90%
- stability in PBS, L-cysteine, and L-histidine ([3]; through 24 h): > 79%

Compound: CCOC(=O)CN1CCN(CC(=O)NCc2ccccc2)CCN(CC(=O)OCC)CC1 [Chelator 6, TACN-benzylamide Ethyl Ester]
- solubility (solvents in which soluble) (Solubility (qualitative)): soluble in ethanol and acetonitrile
- time stable on storage ([1]; stored in an ethanol solution): up to 1 week

Compound: COC(=O)CN1CCN(CC(=O)NCc2ccccc2)CCN(CC(=O)OC)CC1.O=[C]=[99Tc+](=[C]=O)=[C]=O [[^99mTc]Tc-5]
- stability in rat serum ([2]; 24 h): 32 ± 10%
- stability in rat serum ([2]; at 1 h): 94 ± 1%
- stability in PBS, L-cysteine, and L-histidine ([3]; through 4 h): > 90%
- stability in PBS, L-cysteine, and L-histidine ([3]; through 24 h): > 79%

Compound: CCOC(=O)CN1CCN(CC(=O)O)CCN(CC(=O)NCc2ccccc2)CC1.O=[C]=[186Re+](=[C]=O)=[C]=O [[^186Re]Re-8]
- stability in rat serum ([2]; 48 h): 42%
- stability in PBS, L-cysteine, and L-histidine ([3]; through/after 48 h): > 94%

Compound: COC(=O)CN1CCN(CC(=O)O)CCN(CC(=O)NCc2ccccc2)CC1 [Chelator 7, TACN-benzylamide Acid Methyl Ester]
- solubility (solvents in which soluble) (Solubility (qualitative)): soluble in methanol, ethanol, and water

Compound: CCOC(=O)CN1CCN(CC(=O)O)CCN(CC(=O)NCc2ccccc2)CC1.O=[C]=[99Tc+](=[C]=O)=[C]=O [[^99mTc]Tc-8]
- stability in rat serum ([2]; 24 h): > 60%
- stability in PBS, L-cysteine, and L-histidine ([3]; through 24 h): 100%

Compound: COC(=O)CN1CCN(CC(=O)O)CCN(CC(=O)NCc2ccccc2)CC1.O=[C]=[99Tc+](=[C]=O)=[C]=O [[^99mTc]Tc-7]
- stability in rat serum ([2]; 24 h): > 60%
- stability in PBS, L-cysteine, and L-histidine ([3]; through 24 h): 100%

Compound: COC(=O)CN1CCN(CC(=O)O)CCN(CC(=O)NCc2ccccc2)CC1.O=[C]=[186Re+](=[C]=O)=[C]=O [[^186Re]Re-7]
- stability in rat serum ([2]; 48 h): 38%
- stability in PBS, L-cysteine, and L-histidine ([3]; through/after 48 h): > 94%

Compound: O=C(O)CN1CCN(CC(=O)O)CCN(CC(=O)NCc2ccccc2)CC1 [Chelator 4, TACN-benzylamide Acid]
- solubility (solvents in which soluble) (Solubility (qualitative)): soluble in water, methanol, and acetonitrile
- time stable on storage ([1]; at RT in an aqueous solution, in words): several months

Compound: fac-[Re(CO)3(TACN-benzylamide acid)]^+ [Re-4]
- solubility (solvents in which soluble) (Solubility (qualitative)): soluble in water and methanol
- time stable on storage ([1]; stored under dry conditions, in words): several months

Compound: CCOC(=O)C[N+]12CC[N+]3(CC(=O)NCc4ccccc4)CC[N+](CC(=O)OCC)(CC1)[Re-2]32.[C-]#[O+].[C-]#[O+].[C-]#[O+] (stereo not shown) [Re-6, fac-[Re(CO)3(TACN-benzylamideethyl ester)]^+]
- hydrolysis observed on storage [1]: no hydrolysis observed
